ChEMBL document CHEMBL3397009, “Synthesis and biological evaluation of aryl isoxazole derivatives as metabotropic glutamate receptor 1 antagonists: a potential treatment for neuropathic pain” (Bioorg Med Chem Lett, 2015)
Calls of active or inactive are those of the source.

Columns and labels:
[1] = biological target: Metabotropic glutamate receptor 1 (Homo sapiens) (UniProt Q13255); assay: Antagonist activity against human mGluR1 expressed in HEK cells assessed as inhibition of L-glutamate-induced intracellular calcium levels at 1 uM after 18 hrs; format: functional, cell-based; conditions: HEK293
[2] = biological target: Metabotropic glutamate receptor 5 (Homo sapiens) (UniProt P41594); assay: Antagonist activity against human mGluR5 expressed in HEK cells assessed as inhibition of L-glutamate-induced intracellular calcium levels at 10 uM after 18 hrs; format: functional, cell-based; conditions: HEK293
[3] = biological target: Metabotropic glutamate receptor 1 (Homo sapiens) (UniProt Q13255); assay: Antagonist activity against human mGluR1 expressed in HEK cells assessed as inhibition of L-glutamate-induced intracellular calcium levels at 10 uM after 18 hrs; format: functional, cell-based; conditions: HEK293
[4] = biological target: Metabotropic glutamate receptor 5 (Homo sapiens) (UniProt P41594); assay: Antagonist activity against human mGluR5 expressed in HEK cells assessed as inhibition of L-glutamate-induced intracellular calcium levels at 1 uM after 18 hrs; format: functional, cell-based; conditions: HEK293
Rattus norvegicus [5] = assay: Analgesic activity in rat model of spinal nerve ligation-induced neuropathic pain assessed as reduction in cold allodynia by measuring paw withdrawal in response to acetone application at 100 mg/kg, po administered on day 14 after ligation surgery and measured 3 hrs post dose; format: functional, organism-based; design: dose 100 mg/kg
CYP3A4 = CYP3A4 (Homo sapiens, UniProt P08684); assay: Inhibition of CYP3A4 (unknown origin) assessed as remaining enzyme activity at 10 uM; format: ADME; conditions: read-out: Activity
CYP2D6 = CYP2D6 (Homo sapiens, UniProt P10635); assay: Inhibition of CYP2D6 (unknown origin) assessed as remaining enzyme activity at 10 uM; format: ADME; conditions: read-out: Activity
CYP1A2 = biological target: T1, CYP1A2 (Homo sapiens, UniProt P05177); assay: Inhibition of CYP1A2 (unknown origin) assessed as remaining enzyme activity at 10 uM; format: ADME; conditions: read-out: Activity
T1 sequence (P05177 whole entry): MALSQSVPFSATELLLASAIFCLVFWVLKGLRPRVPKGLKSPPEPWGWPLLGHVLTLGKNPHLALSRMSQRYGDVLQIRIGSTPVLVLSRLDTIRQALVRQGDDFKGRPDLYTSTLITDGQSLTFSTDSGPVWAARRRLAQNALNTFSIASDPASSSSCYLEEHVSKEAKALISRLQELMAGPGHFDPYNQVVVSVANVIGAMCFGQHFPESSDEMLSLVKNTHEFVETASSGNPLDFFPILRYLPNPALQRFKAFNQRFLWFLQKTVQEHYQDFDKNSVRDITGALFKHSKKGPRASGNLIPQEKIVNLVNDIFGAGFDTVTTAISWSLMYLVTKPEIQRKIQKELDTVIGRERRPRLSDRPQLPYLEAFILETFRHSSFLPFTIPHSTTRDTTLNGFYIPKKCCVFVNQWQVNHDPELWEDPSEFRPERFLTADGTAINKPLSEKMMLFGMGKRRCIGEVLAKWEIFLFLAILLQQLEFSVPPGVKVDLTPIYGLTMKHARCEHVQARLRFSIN

Rattus norvegicus [6] = assay: Analgesic activity in rat model of spinal nerve ligation-induced neuropathic pain assessed as reduction in mechanical threshold for paw withdrawal at 100 mg/kg, po administered on day 14 after ligation surgery and measured 3 hrs post dose by Von Frey filaments based method; format: functional, organism-based; design: dose 100 mg/kg
CYP2C19 = CYP2C19 (Homo sapiens, UniProt P33261); assay: Inhibition of CYP2C19 (unknown origin) assessed as remaining enzyme activity at 10 uM; format: ADME; conditions: read-out: Activity
CYP2C9 = CYP2C9 (Homo sapiens, UniProt P11712); assay: Inhibition of CYP2C9 (unknown origin) assessed as remaining enzyme activity at 10 uM; format: ADME; conditions: read-out: Activity
[7] = biological target: Voltage-gated inwardly rectifying potassium channel KCNH2 (Homo sapiens, UniProt Q12809); assay: Inhibition of human ERG

Chain of CYP2C9 (P11712 whole entry): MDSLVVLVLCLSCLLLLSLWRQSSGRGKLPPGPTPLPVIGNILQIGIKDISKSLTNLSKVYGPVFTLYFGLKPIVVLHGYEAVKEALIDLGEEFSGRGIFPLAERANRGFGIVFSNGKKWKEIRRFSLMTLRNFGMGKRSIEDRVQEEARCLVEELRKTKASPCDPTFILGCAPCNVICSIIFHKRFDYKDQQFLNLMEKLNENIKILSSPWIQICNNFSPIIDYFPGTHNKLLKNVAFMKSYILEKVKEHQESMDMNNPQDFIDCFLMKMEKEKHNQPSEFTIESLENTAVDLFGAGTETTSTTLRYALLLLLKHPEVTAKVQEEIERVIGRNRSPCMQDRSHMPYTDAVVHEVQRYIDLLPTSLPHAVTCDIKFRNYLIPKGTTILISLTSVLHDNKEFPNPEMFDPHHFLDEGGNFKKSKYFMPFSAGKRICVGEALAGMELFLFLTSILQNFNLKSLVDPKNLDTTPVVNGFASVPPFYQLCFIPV
Chain of Metabotropic glutamate receptor 1 (Homo sapiens) (Q13255 19-1194 limits assumed): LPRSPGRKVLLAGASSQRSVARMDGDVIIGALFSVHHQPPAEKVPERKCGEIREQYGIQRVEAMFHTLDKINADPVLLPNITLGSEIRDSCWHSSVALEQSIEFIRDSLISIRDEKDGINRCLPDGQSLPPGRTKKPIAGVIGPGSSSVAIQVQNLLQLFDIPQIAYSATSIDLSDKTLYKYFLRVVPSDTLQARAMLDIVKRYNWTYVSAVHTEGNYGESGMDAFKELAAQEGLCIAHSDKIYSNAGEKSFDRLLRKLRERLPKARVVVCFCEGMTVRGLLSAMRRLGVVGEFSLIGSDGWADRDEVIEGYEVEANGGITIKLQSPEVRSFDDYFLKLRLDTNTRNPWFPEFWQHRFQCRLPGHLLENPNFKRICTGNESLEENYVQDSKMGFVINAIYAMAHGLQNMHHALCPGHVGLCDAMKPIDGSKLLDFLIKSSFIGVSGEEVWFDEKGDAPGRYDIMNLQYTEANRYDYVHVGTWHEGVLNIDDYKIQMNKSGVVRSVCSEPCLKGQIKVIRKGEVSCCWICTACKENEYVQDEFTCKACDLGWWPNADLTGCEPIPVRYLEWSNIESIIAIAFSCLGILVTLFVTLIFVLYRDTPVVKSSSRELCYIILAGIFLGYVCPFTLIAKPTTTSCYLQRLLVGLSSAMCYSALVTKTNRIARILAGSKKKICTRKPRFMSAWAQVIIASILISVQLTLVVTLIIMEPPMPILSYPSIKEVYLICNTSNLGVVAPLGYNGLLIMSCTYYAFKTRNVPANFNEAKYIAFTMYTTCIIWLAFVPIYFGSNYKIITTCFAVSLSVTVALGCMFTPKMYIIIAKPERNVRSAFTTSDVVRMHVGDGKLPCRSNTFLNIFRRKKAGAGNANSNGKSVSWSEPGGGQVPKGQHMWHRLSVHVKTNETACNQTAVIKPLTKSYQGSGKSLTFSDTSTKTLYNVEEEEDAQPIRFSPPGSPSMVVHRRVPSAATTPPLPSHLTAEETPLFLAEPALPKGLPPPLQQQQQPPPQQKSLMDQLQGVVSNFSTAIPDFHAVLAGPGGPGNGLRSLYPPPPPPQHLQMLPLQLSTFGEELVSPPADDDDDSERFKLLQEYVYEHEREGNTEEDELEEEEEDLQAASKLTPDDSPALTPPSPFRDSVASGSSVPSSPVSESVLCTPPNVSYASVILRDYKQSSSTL
Chain of CYP3A4 (P08684 whole entry): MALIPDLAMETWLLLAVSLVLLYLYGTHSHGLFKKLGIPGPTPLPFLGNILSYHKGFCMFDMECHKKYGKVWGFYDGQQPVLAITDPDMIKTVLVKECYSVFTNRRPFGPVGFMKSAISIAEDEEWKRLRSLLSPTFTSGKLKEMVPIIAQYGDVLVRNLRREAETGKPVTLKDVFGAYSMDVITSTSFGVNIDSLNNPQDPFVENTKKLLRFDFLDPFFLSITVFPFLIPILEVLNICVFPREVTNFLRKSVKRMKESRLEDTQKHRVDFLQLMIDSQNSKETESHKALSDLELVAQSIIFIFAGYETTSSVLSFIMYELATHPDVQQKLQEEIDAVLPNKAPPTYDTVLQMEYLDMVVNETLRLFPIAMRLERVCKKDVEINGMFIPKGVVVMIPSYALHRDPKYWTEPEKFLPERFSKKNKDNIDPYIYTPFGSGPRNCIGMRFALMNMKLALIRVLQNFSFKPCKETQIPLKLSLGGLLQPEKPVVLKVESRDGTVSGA
Chain of CYP2C19 (P33261 whole entry): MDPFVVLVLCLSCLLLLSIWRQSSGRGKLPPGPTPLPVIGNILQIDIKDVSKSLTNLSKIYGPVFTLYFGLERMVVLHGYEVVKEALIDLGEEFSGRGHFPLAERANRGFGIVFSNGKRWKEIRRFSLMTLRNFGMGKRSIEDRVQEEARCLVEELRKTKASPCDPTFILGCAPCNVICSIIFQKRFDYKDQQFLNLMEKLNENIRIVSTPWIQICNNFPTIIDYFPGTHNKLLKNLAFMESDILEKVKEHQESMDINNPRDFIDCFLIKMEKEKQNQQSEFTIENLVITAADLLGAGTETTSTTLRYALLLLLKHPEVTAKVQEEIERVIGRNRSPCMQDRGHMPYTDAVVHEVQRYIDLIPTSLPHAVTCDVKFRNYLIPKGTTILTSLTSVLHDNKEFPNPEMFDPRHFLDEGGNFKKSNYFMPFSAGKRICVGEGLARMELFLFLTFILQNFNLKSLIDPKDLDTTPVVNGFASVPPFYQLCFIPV
Chain of Metabotropic glutamate receptor 5 (Homo sapiens) (P41594 21-1212 limits assumed): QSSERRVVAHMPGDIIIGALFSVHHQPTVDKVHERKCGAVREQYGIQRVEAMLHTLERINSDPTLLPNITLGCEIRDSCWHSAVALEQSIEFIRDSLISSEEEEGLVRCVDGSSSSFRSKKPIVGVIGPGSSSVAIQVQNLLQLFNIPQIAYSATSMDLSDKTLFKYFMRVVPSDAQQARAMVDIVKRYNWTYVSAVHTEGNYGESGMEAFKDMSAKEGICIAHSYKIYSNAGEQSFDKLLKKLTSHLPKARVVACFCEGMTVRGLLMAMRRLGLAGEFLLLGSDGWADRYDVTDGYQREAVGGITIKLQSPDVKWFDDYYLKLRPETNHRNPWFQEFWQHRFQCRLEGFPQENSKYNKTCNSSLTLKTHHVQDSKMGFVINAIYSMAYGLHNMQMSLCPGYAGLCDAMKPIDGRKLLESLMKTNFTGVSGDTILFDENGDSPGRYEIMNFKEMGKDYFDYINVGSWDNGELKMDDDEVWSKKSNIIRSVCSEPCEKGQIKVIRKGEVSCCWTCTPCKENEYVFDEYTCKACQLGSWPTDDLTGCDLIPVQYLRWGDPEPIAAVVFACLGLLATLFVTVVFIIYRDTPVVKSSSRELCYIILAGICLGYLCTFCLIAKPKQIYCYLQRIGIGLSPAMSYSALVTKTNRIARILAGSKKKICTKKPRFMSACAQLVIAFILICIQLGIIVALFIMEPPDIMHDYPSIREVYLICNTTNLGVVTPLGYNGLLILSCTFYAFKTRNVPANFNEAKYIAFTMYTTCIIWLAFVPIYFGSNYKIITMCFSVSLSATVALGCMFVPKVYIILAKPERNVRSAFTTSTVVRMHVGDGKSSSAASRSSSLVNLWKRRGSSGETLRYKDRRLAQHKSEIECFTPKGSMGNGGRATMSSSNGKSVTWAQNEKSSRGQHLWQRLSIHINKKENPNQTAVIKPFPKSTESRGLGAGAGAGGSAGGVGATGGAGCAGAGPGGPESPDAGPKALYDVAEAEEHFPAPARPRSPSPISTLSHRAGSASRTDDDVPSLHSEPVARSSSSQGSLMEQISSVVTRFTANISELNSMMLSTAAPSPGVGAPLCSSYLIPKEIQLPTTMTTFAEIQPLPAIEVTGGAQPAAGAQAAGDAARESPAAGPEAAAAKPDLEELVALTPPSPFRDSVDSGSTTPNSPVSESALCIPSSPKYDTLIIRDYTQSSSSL
Chain of CYP2D6 (P10635 whole entry): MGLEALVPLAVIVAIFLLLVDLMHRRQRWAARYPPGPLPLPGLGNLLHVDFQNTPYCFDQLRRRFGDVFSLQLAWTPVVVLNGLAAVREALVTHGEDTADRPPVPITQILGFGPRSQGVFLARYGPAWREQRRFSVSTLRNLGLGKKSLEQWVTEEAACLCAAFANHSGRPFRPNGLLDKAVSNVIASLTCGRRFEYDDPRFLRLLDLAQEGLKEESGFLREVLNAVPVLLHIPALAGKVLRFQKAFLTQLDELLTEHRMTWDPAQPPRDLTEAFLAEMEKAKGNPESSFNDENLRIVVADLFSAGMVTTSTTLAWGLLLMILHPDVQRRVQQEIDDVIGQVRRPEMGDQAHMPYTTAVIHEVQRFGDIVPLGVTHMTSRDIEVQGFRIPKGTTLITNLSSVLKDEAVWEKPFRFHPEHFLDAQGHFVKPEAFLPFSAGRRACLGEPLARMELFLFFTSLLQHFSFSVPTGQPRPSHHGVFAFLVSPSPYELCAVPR

Structure (SMILES)	inhibition [1] [%]	inhibition [2] [%]	inhibition [3] [%]	inhibition [4] [%]	Activity (Rattus norvegicus [5])	activity at 10 µM (CYP3A4) [%]	activity at 10 µM (CYP2D6) [%]	activity at 10 µM (CYP1A2) [%]	Activity (Rattus norvegicus [6])	activity at 10 µM (CYP2C19) [%]	activity at 10 µM (CYP2C9) [%]	IC50 [7] [µM]
COc1ccc(-c2cc(-c3ccc4c(c3)N(C(C)C)C4=O)on2)cc1	11.3	15.9	2.44	13.6								
CC(C)N1Cc2cc(-c3cc(-c4ccc(F)cc4F)no3)ccc2C1=O	39.8	13.4	36.5	17.7								
Cc1c(-c2ccc(F)cc2)noc1-c1ccc2c(c1)CN(C(C)C)C2=O	38.4	18.7	62.8	8.16								
Cc1ccc(-c2cc(-c3ccc4c(c3)CN(C(C)C)C4=O)on2)cc1	37.4	15	25.1	21.8								
CC(C)N1Cc2cc(-c3cc(-c4cccnc4F)no3)ccc2C1=O	23.4		42.3									
Cc1c(-c2ccc(Cl)nc2)noc1-c1ccc2c(c1)CN(C(C)C)C2=O	47.1	26.3	56.9	22.2								
COc1ccc(-c2noc(-c3ccc4c(c3)CN(C(C)C)C4=O)c2C)cn1	49.1	30.8	46.5	33.5								
Cc1c(-c2ccc(Cl)cc2)noc1-c1ccc2c(c1)N(C(C)C)C2=O	20.3	28.7	49.1	9.46								
CC(C)N1C(=O)c2ccc(-c3cc(-c4ccccc4F)no3)cc21	68	18.3	91.1	14.9	inactive	120	57.1	98.7	inactive	33.2	32	
CC(C)N1C(=O)c2ccc(-c3cc(-c4ccc(F)cc4F)no3)cc21	11.7		17.3									
CC(C)N1C(=O)c2ccc(-c3cc(-c4ccc(Cl)nc4)no3)cc21	12.3	10.1	7.77	16.1								
CC(C)N1Cc2cc(-c3cc(-c4ccccc4F)no3)ccc2C1=O	56.3	22.5	88.6	21.9		107	45.8	42.5		58.4	39.8	
COc1ccc(-c2cc(-c3ccc4c(c3)CN(C(C)C)C4=O)on2)cn1	16.6	29.2	59.6	5.29	Active	95.6	87.5	90.7	Active	85.9	91.8	12
CC(C)N1C(=O)c2ccc(-c3cc(-c4ccc(F)cc4)no3)cc21	12.8	34	50.4	1.82								
Cc1c(-c2ccc(Cl)cc2)noc1-c1ccc2c(c1)CN(C(C)C)C2=O	30.7	23.4	61.6	11.7								
COc1ccc(-c2noc(-c3ccc4c(c3)N(C(C)C)C4=O)c2C)cc1	9.68		13.7									
NCC1(CC(=O)O)CCCCC1					Active				Active			
COc1ccc(-c2cc(-c3ccc4c(c3)CN(C(C)C)C4=O)on2)cc1	41	15.1	35.1	15.4								
Cc1c(-c2ccc3c(c2)CN(C(C)C)C3=O)nnn1-c1ccc(F)cc1F	92.5		93.1		Active				Active			
Cc1ccc(-c2cc(-c3ccc4c(c3)CN(C(C)C)C4=O)on2)cn1	4.53	34.4	62.6	14								
CC(C)N1Cc2cc(-c3cc(-c4ccc(Cl)nc4)no3)ccc2C1=O	45.4	36.5	47.1	22.7	Active	94.5	91.3	92.6	Active	56.6	104	40
CC(C)N1C(=O)c2ccc(-c3cc(-c4ccc(Cl)cc4)no3)cc21	16.4	10.3	33.9	12.2								
Cc1c(-c2ccc(F)cc2F)noc1-c1ccc2c(c1)CN(C(C)C)C2=O	31.9	26.3	87.6	7.95		98	104	89.6		59.2	2.55	
